For five compounds, substrate quality, substrate cleaved and Ki results are on record in patent publication EP0507854B1 (priority 1989, dated 1991).

For data set [1], the system named is fowl plague viral NA. The settings on record: result in words; cited from earlier work.
Data set [2] concerns C. perfrinqens NA. The settings on record: after 22 hrs; cited from earlier work.
Data set [3] deals with V cholera NA (Vibrio cholerae serotype O1, UniProt P0C6E9). The settings on record: after 22 hrs; cited from earlier work.
Chain of V cholera NA (P0C6E9 25-781 limits assumed): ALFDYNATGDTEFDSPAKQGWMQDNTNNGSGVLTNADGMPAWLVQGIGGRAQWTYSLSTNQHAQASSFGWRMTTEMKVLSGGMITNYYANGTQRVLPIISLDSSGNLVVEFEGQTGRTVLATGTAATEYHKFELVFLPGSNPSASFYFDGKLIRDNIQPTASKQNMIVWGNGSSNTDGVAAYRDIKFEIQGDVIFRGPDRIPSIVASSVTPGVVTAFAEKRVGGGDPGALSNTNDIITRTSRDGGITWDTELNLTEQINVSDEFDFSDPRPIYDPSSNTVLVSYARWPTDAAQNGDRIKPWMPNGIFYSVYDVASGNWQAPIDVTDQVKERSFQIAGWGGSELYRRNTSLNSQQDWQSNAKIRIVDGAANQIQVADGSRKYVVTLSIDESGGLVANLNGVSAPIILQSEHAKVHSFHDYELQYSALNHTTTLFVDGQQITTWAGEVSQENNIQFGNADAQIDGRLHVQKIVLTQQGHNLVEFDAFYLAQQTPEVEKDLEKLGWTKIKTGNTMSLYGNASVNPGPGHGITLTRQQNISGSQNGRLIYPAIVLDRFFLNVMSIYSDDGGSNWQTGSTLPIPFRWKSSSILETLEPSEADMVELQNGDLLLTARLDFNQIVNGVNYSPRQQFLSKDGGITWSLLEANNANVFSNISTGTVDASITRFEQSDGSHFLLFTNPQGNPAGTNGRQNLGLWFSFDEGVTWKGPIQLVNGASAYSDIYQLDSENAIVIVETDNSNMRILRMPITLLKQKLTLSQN
The subject of data set [4] is A. ureafaciens NA. The settings on record: after 22 hrs; cited from earlier work.
In data set [5] the target is Influenza A (H1N1) neuraminidase (Influenza A virus, UniProt P03468). The experiment in a line: biochemical.
Chain of Influenza A (H1N1) neuraminidase (P03468 whole entry, looked up): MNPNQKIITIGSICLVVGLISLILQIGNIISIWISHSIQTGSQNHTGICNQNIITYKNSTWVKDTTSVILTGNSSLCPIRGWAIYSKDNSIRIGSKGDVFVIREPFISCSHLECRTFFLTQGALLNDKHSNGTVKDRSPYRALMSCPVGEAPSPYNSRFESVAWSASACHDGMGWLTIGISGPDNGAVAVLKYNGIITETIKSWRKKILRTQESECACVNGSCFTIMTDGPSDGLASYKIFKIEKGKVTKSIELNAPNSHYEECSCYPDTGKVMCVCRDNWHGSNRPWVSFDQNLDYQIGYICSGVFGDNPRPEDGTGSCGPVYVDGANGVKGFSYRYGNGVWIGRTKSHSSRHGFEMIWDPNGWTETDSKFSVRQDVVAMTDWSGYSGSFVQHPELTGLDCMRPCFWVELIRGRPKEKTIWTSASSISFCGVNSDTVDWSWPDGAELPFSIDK
Data set [6] concerns the target Influenza A (H3N2) neuraminidase (Influenza A virus, UniProt P03482). The experiment in a line: biochemical.
Data set [7] deals with Influenza B neuraminidase (Influenza B virus, UniProt P03474). The experiment in a line: biochemical.
Chain of Influenza B neuraminidase (P03474 whole entry, looked up): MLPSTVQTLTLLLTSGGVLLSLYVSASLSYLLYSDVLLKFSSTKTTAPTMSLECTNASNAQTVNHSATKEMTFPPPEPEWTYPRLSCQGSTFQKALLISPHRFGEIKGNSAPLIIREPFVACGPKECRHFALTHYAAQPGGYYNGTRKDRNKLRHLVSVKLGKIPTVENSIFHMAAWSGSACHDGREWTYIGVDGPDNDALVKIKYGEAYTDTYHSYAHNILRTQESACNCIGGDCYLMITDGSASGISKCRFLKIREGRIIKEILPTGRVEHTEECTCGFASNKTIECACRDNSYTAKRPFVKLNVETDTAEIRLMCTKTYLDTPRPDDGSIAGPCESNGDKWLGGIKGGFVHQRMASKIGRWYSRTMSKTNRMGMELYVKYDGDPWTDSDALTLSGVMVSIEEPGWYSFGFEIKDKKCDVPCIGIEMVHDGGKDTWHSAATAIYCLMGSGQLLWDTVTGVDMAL

Structures are written as SMILES. pKi: −log10 of the molar value.

Chain of Influenza A (H3N2) neuraminidase (P03482 whole entry, looked up): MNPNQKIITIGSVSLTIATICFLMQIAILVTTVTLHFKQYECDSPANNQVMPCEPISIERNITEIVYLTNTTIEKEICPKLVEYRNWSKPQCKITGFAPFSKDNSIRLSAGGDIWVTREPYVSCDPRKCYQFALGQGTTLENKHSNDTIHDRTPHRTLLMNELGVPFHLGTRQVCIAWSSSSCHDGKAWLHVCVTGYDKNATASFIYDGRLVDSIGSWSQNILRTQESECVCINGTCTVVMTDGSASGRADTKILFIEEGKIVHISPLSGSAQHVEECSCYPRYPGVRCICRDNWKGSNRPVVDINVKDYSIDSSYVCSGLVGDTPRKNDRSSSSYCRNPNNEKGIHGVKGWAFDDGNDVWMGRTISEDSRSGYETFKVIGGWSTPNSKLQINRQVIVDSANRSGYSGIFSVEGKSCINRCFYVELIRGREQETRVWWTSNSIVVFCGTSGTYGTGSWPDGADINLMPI

As to `CO[C@H]1CC(O)(C(=O)O)O[C@@H]([C@H](O)[C@H](O)CO)[C@@H]1NC(C)=O` (stereo partly drawn) [4-methoxy Neu5Ac, 4-methoxy-N-acetylneuraminic acid], the substrate quality result in data set [1] is reported as “excellent substrate”.

As for `COC1(C(=O)O)CCC(NC(C)=O)C(C(O)C(O)CO)O1` (stereo not drawn) [methyl-alpha-glycoside of 4-deoxy Neu5Ac], in data set [1], the substrate quality entry is on record as “good substrate”.

For the compound `CC(=O)NC1C(O)CC(OCc2ccccc2)(C(=O)O)OC1C(O)C(O)CO` [benzyl-alpha-glycosides of N-acetyl-4-epi-D-neuraminic acid], the substrate cleaved is given as 100% in data set [2], 11% in data set [3] and 50% in data set [4].

The pKi is the negative decadic logarithm of the Ki, by convention in mol/L. High values mean a low Ki, low ones a high Ki. On to `CC(=O)N[C@H]1[C@H]([C@H](O)[C@H](O)CO)OC(O)(C(=O)O)C[C@@H]1O` (stereo partly drawn) [Neu5Ac, N-acetylneuraminic acid], for which, in data set [5], the pKi is 3.20.

With `CC(=O)N[C@@H]1CCC(O)(C(=O)O)O[C@H]1[C@H](O)[C@H](O)CO` (stereo partly drawn) [4-deoxy Neu5Ac, 4-deoxy-N-acetylneuraminic acid], the results for the negative-log Ki (pKi) in data set [6], in data set [5] and in data set [7] were 2.66, 3.00 and 2.98, respectively.
